Experimental data from US10238658B2, “1-pyrazolyl-3-(4-((2-anilinopyrimidin-4-yl) oxy) napththalen-1-yl) ureas as p38 MAP kinase inhibitors” (Respivert Limited, priority 2011, dated 2019).

How the values were obtained:
[1] = test system: HRV16; assay: HRV16 induced CPE in MRC5 cells; format: cell-based; settings: Human rhinovirus sp., HRV16, MRC5, at 0.04 μg/mL; read-out: HRV CPE (MRC5) % inhibition
Protocol: The supernatants were aspirated, and then fresh media added followed by incubation for 4 days. Where appropriate, cells were pre-incubated with compound or DMSO for 2 hr, and the compounds and DMSO added again after washout of the virus.
The percentage inhibition for each well was calculated. The IC50 value was calculated from the concentration-response curve generated by the serial dilutions of the test compounds.

[2] = test system: TNFα; assay: LPS-induced TNFα release in THP-1 cells; format: cell-based; settings: Homo sapiens, THP-1, THP1 cells
Protocol: THP-1 cells, a human monocytic cell line, were stimulated with 3 μg/mL of LPS (from E. Coli; 0111:B4, Sigma) for 4 hr and the supernatant collected for determination of the TNFα concentration by sandwich ELISA (Duo-set, R&D systems). The inhibition of TNFα production was calculated at each concentration by comparison with vehicle control.

[3] = test system: RSV A2; assay: In vitro RSV virus load (F-protein ELISA) in primary bronchial epithelial cells; format: cell-based, respiratory syncytical virus; settings: human respiratory syncytial virus, Primary bronchial epithelial cell; at 0.04 μg/mL; read-out: RSV (F-Elisa) (HBEC) % inhibition
Protocol: Normal human bronchial epithelial cells (NHBEC) grown in 96 well plates were infected with RSV A2 (Strain A2, HFA, Salisbury, UK) at an MOI of 0.001 in the LHC8 Media:RPMI-1640 (50:50) containing 15 mM magnesium chloride and incubated for 1 hr at 37° C. for adsorption. The cells were then washed with PBS (3×200 μL), fresh media (200 μL) was added and incubation continued for 4 days. Where appropriate, cells were pre-incubated with the compound or DMSO for 2 hr, and then added again after washout of the virus.
The cells were fixed with 4% formaldehyde in PBS solution (50 μL) for 20 min, washed with washing buffer (3×200 μL; PBS including 0.5% BSA and 0.05% Tween-20) and incubated with blocking solution (5% condensed milk in PBS) for 1 hr. Cells were then washed with washing buffer (3×200 μL) and incubated for 1 hr at RT with anti-RSV (2F7) F-fusion protein antibody (40 μL; mouse monoclonal, lot 798760, Cat. No. ab43812, Abcam) in 5% BSA in PBS-tween). After washing, cells were incubated with an HRP-conjugated secondary antibody solution (50 μL) in 5% BSA in PBS-Tween (lot 00053170, Cat.No. P0447, Dako) and then TMB substrate (50 μL; substrate reagent pack, lot 269472, Cat. No. DY999, R&D Systems, Inc.) was added. This reaction was stopped by the addition of 2N H2SO4 (50 μL) and the resultant signal was determined colorimetrically (OD: 450 nm with a reference wavelength of 655 nm) in a microplate reader (Varioskan® Flash, ThermoFisher Scientific).
After washing with washing buffer, 1% SDS in distilled water (100 μL) was added to each well, and plates were shaken lightly on the shaker for 1 hr prior to reading the absorbance at 595 nm. The measured OD450-655 readings were corrected to the cell number by dividing the OD450-655 by the OD595 readings. The percentage inhibition for each well was calculated and the IC50 value was calculated from the concentration-response curve generated from the serial dilutions of compound.

[4] = test system: IL-8; assay: Rhinovirus-induced IL-8 release in BEAS2B cells; format: cell-based; settings: Homo sapiens, BEAS-2B, at 0.04 μg/mL; read-out: HRV IL-8 (BEAS2B) % inhibition
Protocol: Human rhinovirus RV16 was obtained from the American Type Culture Collection (Manassas, Va.). Viral stocks were generated by infecting Hela cells with HRV until 80% of the cells were cytopathic.
BEAS2B cells were infected with HRV at an MOI of 5 and incubated for 2 hr at 33° C. with gentle shaking for to promote absorption. The cells were then washed with PBS, fresh media added and the cells were incubated for a further 72 hr. The supernatant was collected for assay of IL-8 concentrations using a Duoset ELISA development kit (R&D systems, Minneapolis, Minn.). […]

[5] = test system: IL-8; assay: LPS-induced IL-8 release in d-U937 cells; format: cell-based; settings: Homo sapiens, dU937, dU937 cells
Protocol: (§1) U937 cells, a human monocytic cell line, were differentiated into macrophage-type cells by incubation with PMA (100 ng/mL) for 48 to 72 hr. Cells were pre-incubated with final concentrations of test compound for 2 hr and were then stimulated with LPS (0.1 μg/mL; from E. Coli: O111:B4, Sigma) for 4 hr. The supernatant was collected for determination of TNFα and IL-8 concentrations by sandwich ELISA (Duo-set, R&D systems). […] The relative 50% effective concentration (REC50) was determined from the resultant concentration-response curve. The inhibition of IL-8 production was calculated at each concentration of test compound by comparison with vehicle control.

[6] = test system: TNFα; assay: LPS-induced TNFα release in d-U937 cells; format: cell-based; settings: Homo sapiens, dU937, dU937 cells; relative to 10 μg/mL BIRB796; read-out: LPS Induced Release TNFα REC50 (dU937)
Protocol: as §1

[7] = test system: PBMC; assay: Cell mitosis assay; format: cell-based; settings: Homo sapiens, read-out: Mitosis Assay % inhibition in PBMC Cells at concn 5 μg/mL
Protocol: Peripheral blood mononucleocytes (PBMCs) from healthy subjects were separated from whole blood (Quintiles, London, UK) using a density gradient (Histopaque®-1077, Sigma-Aldrich, Poole, UK). The PBMCs (3 million cells per sample) were subsequently treated with 2% PHA (Sigma-Aldrich, Poole, UK) for 48 hr, followed by a 20 hr exposure to varying concentrations of test compounds. At 2 hr before collection, PBMCs were treated with demecolcine (0.1 μg/mL; Invitrogen, Paisley, UK,) to arrest cells in metaphase. To observe mitotic cells, PBMCs were permeabilised and fixed by adding Intraprep (50 μL; Beckman Coulter, France), and stained with anti-phospho-histone 3 ([…]; #9701; Cell Signalling, Danvers, Mass.) and propidium iodide (1 mg/mL; Sigma-Aldrich, Poole, UK,) as previously described (Muehlbauer P. A. and Schuler M. J., Mutation Research, 2003, 537:117-130). Fluorescence was observed using an ATTUNE flow cytometer (Invitrogen, Paisley, UK), gating for lymphocytes.

[8] = test system: IL-8; assay: TNFα-stimulated IL-8 production in primary bronchial epithelial cells from COPD; format: cell-based; settings: Homo sapiens, Epithelial cell; read-out: IL-8 E max, bronchial epithelial cell
Protocol: (§2) Primary airway epithelial cells obtained from patients with COPD were purchased from Asterand (Royston, UK), and maintained in bronchial epithelial cell growth media that was prepared by mixing together LHC8 (lnvitrogen) (500 mL), with LHC9 (Invitrogen) (500 mL) and 3 μL of retinoic acid solution (5 mg/mL in neat DMSO. The media was removed by aspiration and fresh BEGM (200 μL) was added to each well. Where appropriate, 1 μL of a solution of the test compound at the state concentrations or 1 μL of DMSO as the vehicle control was added and the cells were incubated for 2 hr. The cells were stimulated with TNFα (50 μL; final concentration 50 ng/mL) and then incubated for 4 hr at 37° C. and 5% CO2. The supernatant was then collected and kept at −20° C.
(§3) The levels of IL-6 and IL-8 were determined by ELISA using R&D Systems' Human IL-6 and IL-8 Duoset® Elisa Kits. The inhibition of IL-6 and IL-8 production was calculated at each concentration by comparison with vehicle control.

[9] = test system: IL-6; assay: LPS-stimulated IL-6 production in sputum macrophages from COPD; format: cell-based; settings: Homo sapiens, Macrophage; read-out: IL-6 E max, sputum macrophage
Protocol: Patients with COPD were inhaled with a nebulised solution of 3% (w/v) hypertonic saline using an ultrasonic nebuliser (Devilbiss, Carthage, Mo.) with tidal breathing for 5 min. This procedure was repeated a maximum of three times until enough sputum was obtained. The sputum samples were homogenized and mixed vigorously using a vortex mixer in 0.02% v/v dithiothreitol (DTT) solution. The samples were re-suspended in PBS (40 mL) followed by centrifugation at 1500 rpm at 4° C. for 10 min to obtain sputum cell pellets. The pellets were washed twice with PBS (40 mL). […]
(§4) Where appropriate, 1 μL of a solution containing either the test compound or reference article at the stated concentrations or alternatively 1 μL of DMSO as the vehicle control was added to each well (200 μL in media) and the cells were incubated for 2 hr. […] After washing with 200 uL wash buffer per well, the beads were resuspended in sheath fluid (150 μL) and analyzed immediately. The level of each analyte in the supernatant was calculated using Xcel Fit software with a 4 or 5-parameter equation using each standard curve. The inhibitions of each cytokine production were calculated at each concentration by comparison with vehicle control. The IC50 values were determined from concentration-inhibition curves using XL-Fit (idbs, Guildford, UK)

[10] = test system: TNFα; assay: LPS-stimulated TNFα production in sputum macrophages from COPD; format: cell-based; settings: Homo sapiens, Macrophage; read-out: TNFα E max, sputum macrophage
Protocol: (§5) Patients with COPD were inhaled with a nebulised solution of 3% (w/v) hypertonic saline using an ultrasonic nebuliser (Devilbiss, Carthage, Mo.) with tidal breathing for 5 min. This procedure was repeated a maximum of three times until enough sputum was obtained. The sputum samples were homogenized and mixed vigorously using a vortex mixer in 0.02% v/v dithiothreitol (DTT) solution. The samples were re-suspended in PBS (40 mL) followed by centrifugation at 1500 rpm at 4° C. for 10 min to obtain sputum cell pellets. The pellets were washed twice with PBS (40 mL). The sputum cells were then re-suspended in macrophage serum-free medium (macrophage-SFM, Life technologies, Paisley, UK; to achieve 2×10^6/well in a 24 well plate) containing 20 U/mL penicillin, 0.02 mg/mL streptomycin and 5 μg/mL amphotericin B and seeded on high bound 96-well plate, followed by incubation for 2 hr at 37° C. and at 5% CO2 to allow the macrophages to attach to the bottom of the plate. The cells on the plate were washed with fresh macrophage-SFM (200 μL/well) to remove neutrophils and other contaminated cells. The adherent cells (mainly sputum macrophages) on the plate were used for further analysis. Sputum induction and isolation were conducted in Quintiles Drug Research Unit at Guys Hospital and ethics approval and written informed consent was obtained by Quintiles.
as §4

[11] = test system: IL-8; assay: LPS-stimulated IL-8 production in sputum macrophages from COPD; format: cell-based; settings: Homo sapiens, Macrophage; read-out: IL-8 E max, sputum macrophage
Protocol: as §5, §4

[12] = test system: MIP1α; assay: LPS-stimulated MIP1α production in sputum macrophages from COPD; format: cell-based; settings: Homo sapiens, Macrophage; read-out: MIP1α E max, sputum macrophage
Protocol: as §5, §4

[13] = test system: IL-6; assay: TNFα-stimulated IL-6 production in primary bronchial epithelial cells from COPD; format: cell-based; settings: Homo sapiens, Epithelial cell; read-out: IL-6 E max, bronchial epithelial cell
Protocol: as §2, §3

[14] = test system: A/J mice; assay: Cigarette smoke model: macrophage and neutrophil accumulation in BALF; format: in vivo, mouse; settings: 1.75 μg/mouse (35 μL, bid, i.n.)
Protocol: A/J mice (males, 5 weeks old) were exposed to cigarette smoke (4% cigarette smoke, diluted with air) for 30 min/day for 11 days using a Tobacco Smoke Inhalation Experiment System for small animals (Model SIS-CS; Sibata Scientific Technology, Tokyo, Japan). […] At 12 hr after the last dosing, each of the animals was anesthetized, the trachea cannulated and bronchoalveolar lavage fluid (BALF) was collected. The numbers of alveolar macrophages and neutrophils were determined by FACS analysis (EPICS® ALTRA II, Beckman Coulter, Inc., Fullerton, Calif., USA) using anti-mouse MOMA2 antibody (macrophage) or anti-mouse 7/4 antibody (neutrophil). BALF was centrifuged and the supernatant was collected. The level of keratinocyte chemoattractant (KC; CXCL1) in BALF was quantitated using a Quentikine® mouse KC ELISA kit (R&D systems, Inc., Minneapolis, Minn., USA).

Row | Compound | inhibition at 0.04 µg/mL [1] [%] | IC50 [2] [µM] | inhibition at 0.04 µg/mL [3] [%] | inhibition at 0.04 µg/mL [4] [%] | IC50 [5] [µM] | EC50 [6] [µM] | inhibition at 5 µg/mL [7] [%] | Emax at 0.1 µg/mL [8] [%] | Emax at 0.1 µg/mL [9] [%] | Emax at 0.1 µg/mL [10] [%] | Emax at 0.1 µg/mL [11] [%] | Emax at 0.1 µg/mL [12] [%] | Emax at 0.1 µg/mL [13] [%] | macrophage accumulation into airways, cigarette smoke model [14] | neutrophil accumulation into airways, cigarette smoke model [14]
1 | Cc1ccc(-n2nc(C(C)(C)C)cc2NC(=O)Nc2ccc(Oc3ccnc(Nc4ccccc4C)n3)c3ccccc23)cc1 [Example 21, 1-(3-(tert-butyl)-1-(p-tolyl)-1H-pyrazol-5-yl)-3-(4-((2-(o-tolylamino)pyrimidin-4-yl)oxy)naphthalen-1-yl)urea] | 3 | 0.017 | 66 | 100 | > 1.68 | 0.0097 |  |  |  |  |  |  |  |  | 
2 | CCOc1ccc(Nc2nccc(Oc3ccc(NC(=O)Nc4cc(C(C)(C)C)nn4-c4ccc(C)cc4)c4ccccc34)n2)cc1 [Example 22, 1-(3-(tert-butyl)-1-(p-tolyl)-1H-pyrazol-5-yl)-3-(4-((2-((4-ethoxyphenyl)amino)pyrimidin-4-yl)oxy)naphthalen-1-yl)urea] | 48 | 0.03 | 78 | 100 | > 1.59 | 0.017 | 70.8 |  |  |  |  |  |  |  | 
3 | Cc1ccc(-n2nc(C(C)(C)C)cc2NC(=O)Nc2ccc(Oc3ccnc(Nc4ccc(F)cc4)n3)c3ccccc23)cc1 [Example 23, 1-(3-(tert-butyl)-1-(p-tolyl)-1H-pyrazol-5-yl)-3-(4-((2-((4-fluorophenyl)amino)pyrimidin-4-yl)oxy)naphthalen-1-yl)urea] | 18 | 0.024 | 41 | 100 | 0.022 | 0.008 |  |  |  |  |  |  |  |  | 
4 | CCC(=O)O[C@]1(C(=O)SCF)[C@H](C)C[C@H]2[C@@H]3C[C@H](F)C4=CC(=O)C=C[C@]4(C)[C@@]3(F)[C@@H](O)C[C@@]21C [Fluticasone Propionate, fluticasone propionate, reference compound] |  |  |  |  |  |  |  | 17 | 26 | 18 | 19 | 20 | 38 | did not inhibit | did not inhibit
